In patent publication US10144706B2 (BRISTOL-MYERS SQUIBB COMPANY, priority 2016, dated 2018):
Like-named read-outs stand apart in the source and are kept apart here.

Molecular target: T1, PD-1/PD-L1 interaction (PD-1-Ig / PD-L1-His) (Homo sapiens, UniProt Q9NZQ7)
T1 construct: hPDL1(18-239)-TVMV-His; TVMV protease site linker (C); made in house; host or cells: HEK293T
Assay: PD-1/PD-L1 Homogenous Time-Resolved Fluorescence (HTRF) binding assay
Conditions: PD-L1-His 10 nM, PD-1-Ig 20 nM, read-out: Range or IC50
How it was run: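 HTRF detection used 1 nM europium-cryptate anti-Ig and 20 nM APC anti-His. Compounds first saw 10 nM PD-L1-His for 15 min, and 20 nM PD-1-Ig was then added for another 15 min. Buffer was dPBS plus 0.1% BSA and 0.05% Tween-20. All concentrations are final.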

T1 sequence (Q9NZQ7 with tags, fused parts or gaps): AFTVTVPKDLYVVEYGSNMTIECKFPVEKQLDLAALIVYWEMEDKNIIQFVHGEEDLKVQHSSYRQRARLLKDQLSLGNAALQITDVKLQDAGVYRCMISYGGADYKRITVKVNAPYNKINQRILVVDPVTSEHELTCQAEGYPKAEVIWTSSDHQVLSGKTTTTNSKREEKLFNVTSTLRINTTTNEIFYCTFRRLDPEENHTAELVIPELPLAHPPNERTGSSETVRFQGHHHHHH

Row | SMILES | IC50 (IC50 range class) [nM] | IC50 (numeric IC50) [nM]
1 | Cc1c(COc2cc(OCc3ccc(-n4cccn4)nc3)c(CN(C)[C@H](C(=O)O)[C@@H](C)O)cc2Cl)cccc1-c1cccc(COc2cc(OCc3ccc(-n4cccn4)nc3)c(CN(C)[C@H](C(=O)O)[C@@H](C)O)cc2Cl)c1C [Example 5029, (2S,2′S,3R,3′R)-2,2′-((((((2,2′-dimethyl-[1,1′-biphenyl]-3,3′-diyl)bis(methylene))bis(oxy))bis(2-((6-(1H-pyrazol-1-yl)pyridin-3-yl)methoxy)-5-chloro-4,1-phenylene))bis(methylene))bis(methylazanediyl))bis(3-hydroxybutanoic acid)] | 20.1 to 90 | –
2 | Cc1c(COc2cc(OCc3cncc(C#N)c3)c(CN(C)C(CCO)C(=O)O)cc2Cl)cccc1-c1cccc(COc2cc(OCc3cncc(C#N)c3)c(CN(C)C(CCO)C(=O)O)cc2Cl)c1C (centres unmarked) [Example 40810] | 20.1 to 90 | –
3 | Cc1c(COc2cc(OCc3cncc(C#N)c3)c(Cl)cc2Cl)cccc1-c1cccc(COc2cc(OCc3cncc(C#N)c3)c(CN[C@@](C)(CO)C(=O)O)cc2Cl)c1C [Example 70060] | 20.1 to 90 | –
4 | CCC[C@@H](C(=O)O)N(C)Cc1cc(Cl)c(OCc2cccc(-c3cccc(COc4cc(OCc5cc(F)cc(F)c5)c(CN(C)[C@@H](CCC)C(=O)O)cc4Cl)c3C)c2C)cc1OCc1cc(F)cc(F)c1 [Example 5016, (2S,2′S)-2,2′-((((((2,2′-dimethyl-[1,1′-biphenyl]-3,3′-diyl)bis(methylene))bis(oxy))bis(5-chloro-2-((3,5-difluorobenzyl)oxy)-4,1-phenylene))bis(methylene))bis(methylazanediyl))dipentanoic acid] | – | 31
5 | Cc1c(OCCCN2CCC[C@@H](O)C2)cccc1-c1cccc(OCCCN2CC[C@@H](O)C2)c1C [Example 2114, (R)-1-(3-((3′-(3-((R)-3-hydroxypyrrolidin-1-yl)propoxy)-2,2′-dimethyl-[1,1′-biphenyl]-3-yl)oxy)propyl)piperidin-3-ol] | 90.1 to 1000 | –
6 | Cc1c(COc2cc(OCc3cncc(C#N)c3)c(CN[C@@H](CCO)C(=O)O)cc2Cl)cccc1-c1cccc(COc2cc(OCc3cncc(C#N)c3)c(CN[C@H](CCO)C(=O)O)cc2Cl)c1C [Example 40770] | – | 0.04
7 | Cc1cc(OCc2cccc(-c3cccc(COc4cc(C)c(CN5CCCC[C@H]5C(=O)O)cc4C)c3C)c2C)c(C)cc1CN1CCCC[C@H]1C(=O)O [Example 5002, (2S,2′S)-1,1′-(((((2,2′-dimethyl-[1,1′-biphenyl]-3,3′-diyl)bis(methylene))bis(oxy))bis(2,5-dimethyl-4,1-phenylene))bis(methylene))bis(piperidine-2-carboxylic acid)] | 20.1 to 90 | –
8 | Cc1c(COc2cc(OCc3ccc(-n4cccn4)nc3)c(CN3CCCC[C@H]3C(=O)O)cc2Cl)cccc1-c1cccc(COc2cc(OCc3ccc(-n4cccn4)nc3)c(CN3CCCC[C@H]3C(=O)O)cc2Cl)c1C [Example 5021, (2S,2′S)-1,1′-(((((2,2′-dimethyl-[1,1′-biphenyl]-3,3′-diyl)bis(methylene))bis(oxy))bis(2-((6-(1H-pyrazol-1-yl)pyridin-3-yl)methoxy)-5-chloro-4,1-phenylene))bis(methylene))bis(piperidine-2-carboxylic acid)] | 0.04 to 20 | –
9 | CCN(Cc1cc(Cl)c(OCc2cccc(-c3cccc(COc4cc(OCc5cncc(C#N)c5)c(CN(CC)C(CCO)C(=O)O)cc4Cl)c3C)c2C)cc1OCc1cncc(C#N)c1)C(CCO)C(=O)O (centres unmarked) [Example 40800] | 0.04 to 20 | –
10 | CC(CO)(NCc1cc(Cl)c(OCc2cccc(-c3cccc(COc4cc(OCc5cncc(C#N)c5)c(CO)cc4Cl)c3Cl)c2Cl)cc1OCc1cncc(C#N)c1)C(=O)O (centres unmarked) [Example 50380] | 0.04 to 20 | –
11 | Cc1c(OCCCN2CC[C@H](O)[C@@H](O)C2)cccc1-c1cccc(OCCCN2CC[C@H](O)[C@@H](O)C2)c1C [Example 2084, (3S,3′S,4S,4′S)-1,1′-(((2,2′-dimethyl-[1,1′-biphenyl]-3,3′-diyl)bis(oxy))bis(propane-3,1-diyl))bis(piperidine-3,4-diol)] | 20.1 to 90 | –
12 | Cc1cc(OCc2cccc(-c3cccc(COc4cc(OCc5cncc(C#N)c5)c(CN(C)[C@@H](CCO)C(=O)O)cc4Cl)c3C)c2C)c(Cl)cc1CN(C)[C@@H](CCO)C(=O)O [Example 5505, N-(4-((3′-((4-((((S)-1-carboxy-3-hydroxypropyl)(methyl)amino)methyl)-2-chloro-5-((5-cyanopyridin-3-yl)methoxy)phenoxy)methyl)-2,2′-dimethyl-[1,1′-biphenyl]-3-yl)methoxy)-5-chloro-2-methylbenzyl)-N-methyl-L-homoserine] | 0.04 to 20 | –
13 | NCCCOc1cccc(-c2cccc(OCCCN)c2Cl)c1Cl [Example 2134, 3,3′-((2,2′-dichloro-[1,1′-biphenyl]-3,3′-diyl)bis(oxy))bis(propan-1-amine)] | 90.1 to 1000 | –
14 | Cc1c(OCCCNC2CCN(C)CC2)cccc1-c1cccc(OCCCN2CC[C@@H](O)C2)c1C [Example 2066, (R)-1-(3-((2,2′-dimethyl-3′-(3-((1-methylpiperidin-4-yl)amino)propoxy)-[1,1′-biphenyl]-3-yl)oxy)propyl)pyrrolidin-3-ol] | 90.1 to 1000 | –
15 | Cc1c(OCCCN[C@@H](CO)C(=O)O)cccc1-c1cccc(OCCCN2CC[C@@H](O)C2)c1C [Example 2012, (3-((3′-(3-((R)-3-hydroxypyrrolidin-1-yl)propoxy)-2,2′-dimethyl-[1,1′-biphenyl]-3-yl)oxy)propyl)-L-serine] | 90.1 to 1000 | –
16 | Cc1c(OCCCN2CC[C@@H](O)C2)cccc1-c1cccc(OCCCN2CC[C@@H](O)C2)c1Cl [Example 3024, (3R,3′R)-1,1′-(((2-chloro-2′-methyl-[1,1′-biphenyl]-3,3′-diyl)bis(oxy))bis(propane-3,1-diyl))bis(pyrrolidin-3-ol)] | – | 12
17 | N#Cc1cncc(COc2cc(OCc3cccc(-c4cccc(COc5cc(OCc6cncc(C#N)c6)c(C(=O)NC6CC6)cc5Cl)c4Cl)c3Cl)c(Cl)cc2C(=O)O)c1 [Example 90020] | 20.1 to 90 | –
18 | Cc1cc(OCCCN2CC[C@@H](O)C2)ccc1-c1ccc(OCCCN2CC[C@@H](O)C2)cc1C [Example 3012, (3R,3′R)-1,1′-(((2,2′-dimethyl-[1,1′-biphenyl]-4,4′-diyl)bis(oxy))bis(propane-3,1-diyl))bis(pyrrolidin-3-ol)] | > 10000 | –
19 | Cc1cc(OCc2cccc(-c3cccc(COc4cc(OCc5cncc(C#N)c5)c(CN5CCCC[C@H]5C(=O)O)cc4Cl)c3C)c2C)c(Cl)cc1CN1CCCC[C@H]1C(=O)O [Example 5503, (S)-1-(4-((3′-((4-(((S)-2-carboxypiperidin-1-yl)methyl)-2-chloro-5-((5-cyanopyridin-3-yl)methoxy)phenoxy)methyl)-2,2′-dimethyl-[1,1′-biphenyl]-3-yl)methoxy)-5-chloro-2-methylbenzyl)piperidine-2-carboxylic acid] | 0.04 to 20 | –
20 | Cc1c(OCCCNC[C@@H](O)CO)cccc1-c1cccc(OCCCN2CC[C@@H](O)C2)c1C [Example 2052, (R)-3-((3-((3′-(3-((R)-3-hydroxypyrrolidin-1-yl)propoxy)-2,2′-dimethyl-[1,1′-biphenyl]-3-yl)oxy)propyl)amino)propane-1,2-diol] | 90.1 to 1000 | –
21 | N#Cc1cncc(COc2cc(OCc3cccc(-c4cccc(COc5cc(OCc6cncc(C#N)c6)c(CNC(CCO)C(=O)O)cc5Cl)c4Cl)c3Cl)c(Cl)cc2CNC(CCO)C(=O)O)c1 (centres unmarked) [Example 40170] | 0.04 to 20 | –
22 | Cc1c(COc2cc(OCc3cncc(C#N)c3)c(CN[C@@H](Cc3cnc[nH]3)C(N)=O)cc2Cl)cccc1-c1cccc(COc2cc(OCc3cncc(C#N)c3)c(CN[C@@H](Cc3cnc[nH]3)C(N)=O)cc2Cl)c1C [Example 40620] | 20.1 to 90 | –
23 | Cc1c(COc2cc(OCc3cncc(C#N)c3)c(CNC/C=C/C(=O)O)cc2Cl)cccc1-c1cccc(COc2cc(OCc3cncc(C#N)c3)c(CNC/C=C/C(=O)O)cc2Cl)c1C [Example 40280] | 0.04 to 20 | –
24 | Cc1cc(OCCCN2CC[C@@H](O)C2)ccc1-c1cccc(OCCCCCN2CC[C@@H](O)C2)c1C [Example 3005, (R)-1-(3-((3′-((5-((R)-3-hydroxypyrrolidin-1-yl)pentyl)oxy)-2,2′-dimethyl-[1,1′-biphenyl]-4-yl)oxy)propyl)pyrrolidin-3-ol] | 1000 to 10000 | –
25 | Cc1c(COc2cc(OCc3cncc(C#N)c3)c(CN[C@H](C(N)=O)C3CC3)cc2Cl)cccc1-c1cccc(COc2cc(OCc3cncc(C#N)c3)c(CN[C@H](C(N)=O)C3CC3)cc2Cl)c1C [Example 40670] | 20.1 to 90 | –
26 | Cc1c(COc2cc(OCc3cncc(C#N)c3)c(CO)cc2Cl)cccc1-c1cccc(COc2cc(OCc3cncc(C#N)c3)c(CN[C@@H](C(=O)O)[C@H](C)O)cc2Cl)c1C [Example 50180] | 0.04 to 20 | –
27 | Cc1c(OCCCNC[C@@H](O)c2ccccc2)cccc1-c1cccc(OCCCN2CC[C@@H](O)C2)c1C [Example 2113, (R)-1-(3-((3′-(3-(((S)-2-hydroxy-2-phenylethyl)amino)propoxy)-2,2′-dimethyl-[1,1′-biphenyl]-3-yl)oxy)propyl)pyrrolidin-3-ol] | 20.1 to 90 | –
28 | Cc1c(COc2cc(OCc3cncc(C#N)c3)c(CO)cc2Cl)cccc1-c1cccc(COc2cc(OCc3cncc(C#N)c3)c(CNC(C(=O)O)C(C)O)cc2Cl)c1C (centres unmarked) [Example 50200] | 0.04 to 20 | –
29 | Cc1c(COc2cc(OCc3ccc(-n4cccn4)nc3)c(CN(C)C(C)(CO)CO)cc2Cl)cccc1-c1cccc(COc2cc(OCc3ccc(-n4cccn4)nc3)c(CN(C)C(C)(CO)CO)cc2Cl)c1C [Example 5023, 2,2′-((((((2,2′-dimethyl-[1,1′-biphenyl]-3,3′-diyl)bis(methylene))bis(oxy))bis(2-((6-(1H-pyrazol-1-yl)pyridin-3-yl)methoxy)-5-chloro-4,1-phenylene))bis(methylene))bis(methylazanediyl))bis(2-methylpropane-1,3-diol)] | 20.1 to 90 | –
